Laboratory results published in article PMC13493820, “Versatile Glycan Probes for Multiplatform Investigation of Glycan Interactions with Proteins, Viruses, and Cells” (Nature Communications, 2026).

Target: T1, rhesus Langerin (Macaca mulatta, UniProt F7HNH2)
T1 construct: gene CD207; array protein; construct only in supplement
Test: glycan microarray
Assay type: binding
Details: labelled compound (FAA probe, immobilised)

T1 sequence (F7HNH2 1-328): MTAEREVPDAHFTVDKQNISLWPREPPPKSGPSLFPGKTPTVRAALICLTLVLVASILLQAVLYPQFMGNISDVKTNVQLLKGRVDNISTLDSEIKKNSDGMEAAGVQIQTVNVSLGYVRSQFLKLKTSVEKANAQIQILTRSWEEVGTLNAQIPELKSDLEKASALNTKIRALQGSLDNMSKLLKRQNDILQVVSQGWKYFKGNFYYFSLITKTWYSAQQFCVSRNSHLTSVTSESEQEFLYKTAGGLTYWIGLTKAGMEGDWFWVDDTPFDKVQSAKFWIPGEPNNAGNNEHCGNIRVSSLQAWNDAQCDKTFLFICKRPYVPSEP

CC(=O)N[C@H]1[C@H](O[C@H]2[C@H](O)[C@@H](NC(C)=O)C(O)O[C@@H]2CO)O[C@H](CO)[C@@H](O[C@@H]2O[C@H](CO[C@H]3O[C@H](CO[C@H]4O[C@H](CO)[C@@H](O)[C@H](O)[C@@H]4O[C@H]4O[C@H](CO)[C@@H](O)[C@H](O)[C@@H]4O)[C@@H](O)[C@H](O[C@H]4O[C@H](CO)[C@@H](O)[C@H](O)[C@@H]4O[C@H]4O[C@H](CO)[C@@H](O)[C@H](O)[C@@H]4O)[C@@H]3O)[C@@H](O)[C@H](O[C@H]3O[C@H](CO)[C@@H](O)[C@H](O)[C@@H]3O[C@H]3O[C@H](CO)[C@@H](O)[C@H](O)[C@@H]3O[C@H]3O[C@H](CO)[C@@H](O)[C@H](O)[C@@H]3O)[C@@H]2O)[C@@H]1O (stereo partly shown) [Man9GlcNAc2]
glycan microarray: rhesus Langerin bound almost exclusively to Man9GlcNAc2
